Assays:
[1] = target: T1, Prostaglandin G/H synthase 1 (Ovis aries, UniProt P05979); assay: Inhibition of ovine COX1-mediated prostaglandin alpha production by enzyme immuno assay
T1 sequence (P05979 whole entry): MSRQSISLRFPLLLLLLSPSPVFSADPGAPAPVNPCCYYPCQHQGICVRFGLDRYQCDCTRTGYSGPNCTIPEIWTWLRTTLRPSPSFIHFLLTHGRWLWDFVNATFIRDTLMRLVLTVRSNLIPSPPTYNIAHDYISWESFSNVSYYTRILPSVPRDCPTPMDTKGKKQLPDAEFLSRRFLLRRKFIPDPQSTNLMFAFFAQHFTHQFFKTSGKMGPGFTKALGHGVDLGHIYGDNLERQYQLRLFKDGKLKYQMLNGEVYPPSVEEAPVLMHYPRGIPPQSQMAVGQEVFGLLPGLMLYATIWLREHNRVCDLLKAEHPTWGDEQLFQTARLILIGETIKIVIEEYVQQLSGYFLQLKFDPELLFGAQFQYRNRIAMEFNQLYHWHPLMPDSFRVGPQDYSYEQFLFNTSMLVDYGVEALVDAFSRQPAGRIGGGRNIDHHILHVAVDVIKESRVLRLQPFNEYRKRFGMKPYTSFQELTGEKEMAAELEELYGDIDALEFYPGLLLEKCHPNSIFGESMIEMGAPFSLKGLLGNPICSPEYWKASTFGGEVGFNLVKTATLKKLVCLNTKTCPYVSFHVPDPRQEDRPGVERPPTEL

Rattus norvegicus = assay: Antiinflammatory activity in ip dosed Sprague-Dawley rat assessed as inhibition of carrageenan-induced paw edema measured after 2 hrs plethysmometric analysis; type: functional

Row | IC50 [1] | Structure (SMILES) | ED50 (Rattus norvegicus)
1 | > 100 µM | O=C(O)c1ccc(N2C(=O)c3ccccc3C2=O)cc1 | –
2 | > 100 µM | O=C(O)c1ccc(N2C(=O)c3ccc([N+](=O)[O-])cc3C2=O)cc1 | –
3 | > 100 µM | CC(C)(C)c1ccc2c(c1)C(=O)N(Cc1ccc(S(N)(=O)=O)cc1)C2=O | –
4 | > 100 µM | NS(=O)(=O)c1ccc(CN2C(=O)CCC2=O)cc1 | –
5 | > 100 µM | NS(=O)(=O)c1ccc(CN2C(=O)c3cc(Cl)c(Cl)cc3C2=O)cc1 | 100 mg/kg
6 | > 100 µM | NS(=O)(=O)c1ccc(N2C(=O)c3cccc4cccc(c34)C2=O)cc1 | 210 mg/kg
7 | > 100 µM | NS(=O)(=O)c1ccc(CN2C(=O)c3c(Cl)c(Cl)c(Cl)c(Cl)c3C2=O)cc1 | –
8 | > 100 µM | NS(=O)(=O)c1ccc(CN2C(=O)c3cccc4cccc(c34)C2=O)cc1 | 200 mg/kg
9 | > 100 µM | NS(=O)(=O)c1ccc(N2C(=O)c3nccnc3C2=O)cc1 | 160 mg/kg
10 | > 100 µM | NS(=O)(=O)c1ccc(N2C(=O)CCC2=O)cc1 | –
11 | > 100 µM | O=C(O)c1ccc(N2C(=O)c3c(Cl)c(Cl)c(Cl)c(Cl)c3C2=O)cc1 | –
12 | – | Cc1ccc(-c2cc(C(F)(F)F)nn2-c2ccc(S(N)(=O)=O)cc2)cc1 [CELECOXIB] | 83.4 mg/kg
13 | > 100 µM | O=C(O)c1ccc(N2C(=O)CCC2=O)cc1 | –
14 | > 100 µM | Cc1ccc2c(c1)C(=O)N(c1ccc(S(N)(=O)=O)cc1)C2=O | –
15 | > 100 µM | NS(=O)(=O)c1ccc(CN2C(=O)c3ccccc3C2=O)cc1 | –
16 | > 100 µM | O=C(O)c1ccc(N2C(=O)c3cccc4cccc(c34)C2=O)cc1 | –

Row | IC50 [1] | Structure (SMILES) | ED50 (Rattus norvegicus)
17 | > 100 µM | NS(=O)(=O)c1ccc(N2C(=O)c3cc(Cl)c(Cl)cc3C2=O)cc1 | 111 mg/kg
18 | > 100 µM | Cc1ccc2c(c1)C(=O)N(c1ccc(C(=O)O)cc1)C2=O | –
19 | > 100 µM | NS(=O)(=O)c1ccc(N2C(=O)c3ccccc3C2=O)cc1 | –
20 | > 100 µM | NS(=O)(=O)c1ccc(CN2C(=O)c3nccnc3C2=O)cc1 | 126 mg/kg
21 | > 100 µM | NS(=O)(=O)c1ccc(N2C(=O)[C@H]3CC=CC[C@H]3C2=O)cc1 | –
22 | > 100 µM | CC(C)(C)c1ccc2c(c1)C(=O)N(c1ccc(C(=O)O)cc1)C2=O | –
23 | > 100 µM | NS(=O)(=O)c1ccc(N2C(=O)c3ccc([N+](=O)[O-])cc3C2=O)cc1 | 101 mg/kg
24 | > 100 µM | O=C(O)c1ccc(N2C(=O)[C@H]3CC=CC[C@H]3C2=O)cc1 | –
25 | > 100 µM | NS(=O)(=O)c1ccc(N2C(=O)c3c(Cl)c(Cl)c(Cl)c(Cl)c3C2=O)cc1 | –
26 | > 100 µM | NS(=O)(=O)c1ccc(CN2C(=O)[C@H]3CC=CC[C@H]3C2=O)cc1 | –
27 | > 100 µM | CC(C)(C)c1ccc2c(c1)C(=O)N(c1ccc(S(N)(=O)=O)cc1)C2=O | –
28 | > 100 µM | O=C(O)c1ccc(N2C(=O)c3cc(Cl)c(Cl)cc3C2=O)cc1 | –
29 | > 100 µM | Cc1ccc2c(c1)C(=O)N(Cc1ccc(S(N)(=O)=O)cc1)C2=O | –
30 | > 100 µM | NS(=O)(=O)c1ccc(CN2C(=O)c3ccc([N+](=O)[O-])cc3C2=O)cc1 | 72.4 mg/kg
31 | > 100 µM | O=C(O)c1ccc(N2C(=O)c3nccnc3C2=O)cc1 | –

Reference: ChEMBL document CHEMBL2375216, “Molecular design, synthesis and biological evaluation of cyclic imides bearing benzenesulfonamide fragment as potential COX-2 inhibitors. Part 2” (Bioorg Med Chem Lett, 2013)
